Key:
barnyardgrass [1] = assay: Test B pre-/postemergence herbicide test; format: in vivo, Echinochloa crus-galli
From the text: (§1) Seeds selected from barnyardgrass (Echinochloa crus-galli (L.) Beauv.), Surinam grass (Urochloa decumbens (Staph) R. D. Webster, previously named Brachiaria decumbens Stapf), cocklebur (Xanthium strumarium L.), corn (Zea mays L.), large crabgrass (Digitaria sanguinalis (L.) Scop.), giant foxtail (Setaria faberi Herim.), lambsquarters (Chenopodium album L.), morningglory (Ipomoea coccinea L.), pigweed (Amaranthus retroflexus L.), rice (Oryza sativa L.) and velvetleaf (Abutilon theophrasti Medik.) were planted and treated preemergence with test chemicals formulated in a non-phytotoxic solvent mixture which included a surfactant.
(§2) At the same time, plants selected from these crop and weed species and also blackgrass (Alopecurus myosuroides Huds.), wheat (Triticum aestivum L.) and wild oat (Avena fatua L.) were treated with postemergence applications of test chemicals formulated in the same manner. Plants ranged in height from 2 to 18 cm (1- to 4-leaf stage) for postemergence treatments. Plant species in the flooded paddy test consisted of rice (Oryza sativa L.), small flower umbrella sedge (Cyperus difformis L.), ducksalad (Heteranthera limosa (Sw.) Willd.) and barnyardgrass (Echinochloa crus-galli (L.) Beauv.) grown to the 2-leaf stage for testing. Treated plants and controls were maintained in a greenhouse for 13 to 15 days, after which time all species were compared to controls and visually evaluated. Plant response ratings, summarized in Table B, are based on a scale of 0 to 100 where 0 is no effect and 100 is complete control. A dash (-) response means no test result.

Surinam grass = assay: Test B pre-/postemergence herbicide test; format: in vivo, Urochloa decumbens
From the text: as §1, §2

cocklebur = assay: Test B pre-/postemergence herbicide test; format: in vivo, Xanthium strumarium
From the text: as §1, §2

corn = assay: Test B pre-/postemergence herbicide test; format: in vivo, Zea mays
From the text: as §1, §2

large crabgrass = assay: Test B pre-/postemergence herbicide test; format: in vivo, Digitaria sanguinalis
From the text: as §1, §2

giant foxtail = assay: Test B pre-/postemergence herbicide test; format: in vivo, Setaria faberi
From the text: as §1, §2

lambsquarters = assay: Test B pre-/postemergence herbicide test; format: in vivo, Chenopodium album
From the text: as §1, §2

morningglory = assay: Test B pre-/postemergence herbicide test; format: in vivo, Ipomoea coccinea
From the text: as §1, §2

pigweed = assay: Test B pre-/postemergence herbicide test; format: in vivo, Amaranthus retroflexus
From the text: as §1, §2

velvetleaf = assay: Test B pre-/postemergence herbicide test; format: in vivo, Abutilon theophrasti
From the text: as §1, §2

blackgrass = assay: Test B postemergence herbicide test; format: in vivo, Alopecurus myosuroides; conditions: for Blackgrass plant response rating: postemergence
Protocol: as §2

wheat = assay: Test B postemergence herbicide test; format: in vivo, Triticum aestivum; design: key to Wheat plant response rating: 0 = no effect, 100 = complete control
Protocol: as §2

wild oat = assay: Test B postemergence herbicide test; format: in vivo, Avena fatua
Protocol: as §2

rice = assay: Test B flooded paddy test; format: in vivo, Oryza sativa; conditions: 1000 g ai/ha, scale 0 to 100 (0 no effect, 100 complete control)
Protocol: as §2

[2] = tested on: small flower umbrella sedge; assay: Test B flooded paddy test; format: in vivo, Cyperus difformis; conditions: 1000 g ai/ha, scale 0 to 100 (0 no effect, 100 complete control)
Protocol: as §2

ducksalad = assay: Test B flooded paddy test; format: in vivo, Heteranthera limosa; conditions: 1000 g ai/ha, scale 0 to 100 (0 no effect, 100 complete control)
Protocol: as §2

barnyardgrass [3] = assay: Test B flooded paddy test; format: in vivo, Echinochloa crus-galli; conditions: 1000 g ai/ha, scale 0 to 100 (0 no effect, 100 complete control)
Protocol: as §2

[4] = 125 g ai/ha, 0 is no effect, 100 is complete control, preemergence
[5] = 125 g ai/ha, visual rating, scale 0 (no effect) to 100 (complete control), postemergence
[6] = postemergence, 500 g ai/ha, scale 0 to 100, 0 is no effect, 100 is complete control
[7] = Postemergence, 500 g ai/ha, scale 0 (no effect) to 100 (complete control)
[8] = Postemergence, 500 g ai/ha, visual rating after 13 to 15 days, scale 0 (no effect) to 100 (complete control)
[9] = Preemergence, 500 g ai/ha, scale 0 to 100
[10] = 500 g ai/ha, visual rating 0-100, 0 no effect, 100 complete control, preemergence
[11] = postemergence, 500 g ai/ha, visual rating, scale 0 (no effect) to 100 (complete control)
[12] = postemergence, 62 g ai/ha, scale 0 to 100

Which “Plant response rating (0 to 100 scale), Barnyardgrass” value (barnyardgrass [1]; [4]) does the source give for `C#CCNC(=O)c1cccc(NC(=O)c2nn(C(C)C)nc2CC)c1` [Compound 379] here?
Its value is 0.

And the “Barnyardgrass plant response rating” value (barnyardgrass [1]; [5])?
Its value is 0.

What about the “Barnyardgrass plant response rating” value (barnyardgrass [1]; [6]) of the same compound?
The value was 0.

And the “Plant response rating (0 to 100 scale), Surinam Grass” value (Surinam grass; [4])?
Its value is 0.

And the “Surinam Grass plant response rating” value (Surinam grass; [5])?
The value was 10.

And the “Surinam Grass plant response rating” value (Surinam grass; [7])?
Its value is 20.

And the “Plant response rating (0 to 100 scale), Cocklebur” value (cocklebur; [4])?
The value was 0.

And the “Cocklebur plant response rating” value (cocklebur; [5])?
Its value is 0.

What about the “Cocklebur plant response rating” value (cocklebur; [6]) of the same compound?
The value was 10.

And the “Plant response rating (0 to 100 scale), Corn” value (corn; [4])?
The value was 0.

What about the “Corn plant response rating” value (corn; [5]) of the same compound?
Its value is 0.

And the “Corn plant response rating” value (corn; [6])?
Its value is 0.

And the “Plant response rating (0 to 100 scale), Crabgrass, Large” value (large crabgrass; [4])?
The value was 20.

And the “Crabgrass, Large plant response rating” value (large crabgrass; [5])?
Its value is 10.

And the “Crabgrass, Large plant response rating” value (large crabgrass; [6])?
The value was 10.

And the “Plant response rating (0 to 100 scale), Foxtail, Giant” value (giant foxtail; [4])?
Its value is 0.

What about the “Foxtail, Giant plant response rating” value (giant foxtail; [5]) of the same compound?
Its value is 10.

What about the “Foxtail, Giant plant response rating” value (giant foxtail; [6]) of the same compound?
Its value is 10.

What about the “Plant response rating (0 to 100 scale), Lambsquarters” value (lambsquarters; [4]) of the same compound?
The value was 0.

And the “Lambsquarters plant response rating” value (lambsquarters; [5])?
Its value is 20.

What about the “Lambsquarters plant response rating” value (lambsquarters; [7]) of the same compound?
Its value is 50.

What about the “Plant response rating (0 to 100 scale), Morningglory” value (morningglory; [4]) of the same compound?
Its value is 10.

What about the “Morningglory plant response rating” value (morningglory; [5]) of the same compound?
Its value is 20.

What about the “Morningglory plant response rating” value (morningglory; [7]) of the same compound?
The value was 40.

What about the “Plant response rating (0 to 100 scale), Pigweed” value (pigweed; [4]) of the same compound?
Its value is 20.

And the “Pigweed plant response rating” value (pigweed; [5])?
Its value is 20.

And the “Pigweed plant response rating” value (pigweed; [7])?
The value was 50.

What about the “Plant response rating (0 to 100 scale), Velvetleaf” value (velvetleaf; [4]) of the same compound?
The value was 10.

And the “Velvetleaf plant response rating” value (velvetleaf; [5])?
Its value is 0.

What about the “Velvetleaf plant response rating” value (velvetleaf; [7]) of the same compound?
The value was 10.

What about the “Blackgrass plant response rating” value (blackgrass; 125 g ai/ha, visual rating, scale 0 (no effect) to 100 (complete control)) of the same compound?
Its value is 0.

What about the “Blackgrass plant response rating” value (blackgrass; 500 g ai/ha, scale 0 to 100, 0 is no effect, 100 is complete control) of the same compound?
Its value is 0.

And the “Wheat plant response rating” value (wheat; [5])?
The value was 0.

What about the “Wheat plant response rating” value (wheat; 500 g ai/ha, scale 0 to 100, 0 no effect, 100 complete control, preemergence) of the same compound?
The value was 20.

What about the “Wheat plant response rating” value (wheat; [7]) of the same compound?
The value was 0.

And the “Oat, Wild plant response rating” value (wild oat; [5])?
The value was 0.

What about the “Oat, Wild plant response rating” value (wild oat; [7]) of the same compound?
Its value is 0.

And the “Rice plant response rating” value (rice)?
Its value is 50.

And the “Sedge, Umbrella plant response rating” value [2]?
Its value is 70.

And the “Ducksalad plant response rating” value (ducksalad)?
The value was 70.

And the “Barnyardgrass plant response rating” value (barnyardgrass [3])?
Its value is 40.

What does the source list for `CCNC(=O)c1cccc(NC(=O)c2cc(C(C)(C)C)nn2CC(C)C)c1` [Compound 42]?
Plant response rating, Barnyardgrass (barnyardgrass [1]; [8]): 20; Barnyardgrass plant response rating (barnyardgrass [1]; [9]): 30; Plant response rating, Surinam Grass (Surinam grass; [8]): 20; Surinam Grass plant response rating (Surinam grass; [9]): 20; Plant response rating, Cocklebur (cocklebur; [8]): 20; Cocklebur plant response rating (cocklebur; [9]): 0; Plant response rating, Corn (corn; [8]): 20; Corn plant response rating (corn; [9]): 0; Plant response rating, Crabgrass, Large (large crabgrass; [8]): 70; Crabgrass, Large plant response rating (large crabgrass; [9]): 70; Plant response rating, Foxtail, Giant (giant foxtail; [8]): 10; Foxtail, Giant plant response rating (giant foxtail; [9]): 10; Plant response rating, Lambsquarters (lambsquarters; [8]): 70; Lambsquarters plant response rating (lambsquarters; [9]): 80; Plant response rating, Morningglory (morningglory; [8]): 50; Morningglory plant response rating (morningglory; [9]): 10; Plant response rating, Pigweed (pigweed; [8]): 70; Pigweed plant response rating (pigweed; [9]): 40; Plant response rating, Velvetleaf (velvetleaf; [8]): 60; Velvetleaf plant response rating (velvetleaf; [9]): 10; Plant response rating, Blackgrass (blackgrass; [8]): 10; Plant response rating, Wheat (wheat; [8]): 20; Plant response rating, Oat, Wild (wild oat; [8]): 20; Rice plant response rating (rice; visual rating, 13 to 15 days): 0; Sedge, Umbrella plant response rating ([2]; visual rating, 13 to 15 days): 50; Ducksalad plant response rating (ducksalad; visual rating, 13 to 15 days): 50; Barnyardgrass plant response rating (barnyardgrass [3]; visual rating, 13 to 15 days): 0

With `C=CCn1nc(C(C)(C)C)cc1C(=O)Nc1cccc(C(C)=O)c1` [Compound 129] as the compound, how does the “Plant response rating, Barnyardgrass” value (barnyardgrass [1]; [10]) read?
The value was 60.

And the “Barnyardgrass plant response rating” value (barnyardgrass [1]; [11])?
Its value is 0.

What about the “Barnyardgrass plant response rating” value (barnyardgrass [1]; [12]) of the same compound?
Its value is 0.

And the “Plant response rating, Surinam Grass” value (Surinam grass; [10])?
Its value is 10.

And the “Surinam Grass plant response rating” value (Surinam grass; [11])?
Its value is 20.

And the “Surinam Grass plant response rating” value (Surinam grass; [12])?
Its value is 0.

And the “Plant response rating, Cocklebur” value (cocklebur; [10])?
Its value is 20.

What about the “Cocklebur plant response rating” value (cocklebur; [11]) of the same compound?
The value was 60.

And the “Cocklebur plant response rating” value (cocklebur; [12])?
Its value is 60.

And the “Plant response rating, Corn” value (corn; [10])?
The value was 0.

And the “Plant response rating, Crabgrass, Large” value (large crabgrass; [10])?
Its value is 90.

What about the “Crabgrass, Large plant response rating” value (large crabgrass; [11]) of the same compound?
The value was 10.

What about the “Crabgrass, Large plant response rating” value (large crabgrass; [12]) of the same compound?
Its value is 0.

And the “Plant response rating, Foxtail, Giant” value (giant foxtail; [10])?
The value was 20.

What about the “Foxtail, Giant plant response rating” value (giant foxtail; [11]) of the same compound?
Its value is 10.

And the “Foxtail, Giant plant response rating” value (giant foxtail; [12])?
The value was 10.

And the “Plant response rating, Lambsquarters” value (lambsquarters; [10])?
The value was 20.

And the “Lambsquarters plant response rating” value (lambsquarters; [11])?
Its value is 10.

And the “Lambsquarters plant response rating” value (lambsquarters; [12])?
Its value is 0.

And the “Plant response rating, Morningglory” value (morningglory; [10])?
The value was 0.

What about the “Plant response rating, Pigweed” value (pigweed; [10]) of the same compound?
Its value is 30.

What about the “Pigweed plant response rating” value (pigweed; [11]) of the same compound?
The value was 10.

And the “Pigweed plant response rating” value (pigweed; [12])?
Its value is 0.

What about the “Plant response rating, Velvetleaf” value (velvetleaf; [10]) of the same compound?
Its value is 10.

And the “Velvetleaf plant response rating” value (velvetleaf; [11])?
Its value is 20.

And the “Velvetleaf plant response rating” value (velvetleaf; [12])?
Its value is 0.

What about the “Blackgrass plant response rating” value (blackgrass; 500 g ai/ha, visual rating, scale 0 (no effect) to 100 (complete control)) of the same compound?
The value was 0.

And the “Blackgrass plant response rating” value (blackgrass; 62 g ai/ha, scale 0 to 100)?
The value was 0.

What about the “Wheat plant response rating” value (wheat; [11]) of the same compound?
The value was 0.

What about the “Wheat plant response rating” value (wheat; [12]) of the same compound?
The value was 0.

And the “Oat, Wild plant response rating” value (wild oat; [11])?
The value was 0.

What about the “Oat, Wild plant response rating” value (wild oat; [12]) of the same compound?
The value was 0.

And the “Rice plant response rating” value (rice; visual rating, 13 to 15 days)?
Its value is 10.

And the “Sedge, Umbrella plant response rating” value ([2]; visual rating, 13 to 15 days)?
The value was 80.

What about the “Ducksalad plant response rating” value (ducksalad; visual rating, 13 to 15 days) of the same compound?
Its value is 70.

And the “Barnyardgrass plant response rating” value (barnyardgrass [3]; visual rating, 13 to 15 days)?
The value was 30.

— patent US20060069132A1, “Azolecarboxamide herbicides” (priority 2004, published 2006)
